Laboratory results as given in ChEMBL document CHEMBL1137937, “Synthesis and pharmacological evaluation of prenylated and benzylated pterocarpans against snake venom” (2004).

Legend:
Format in all cases: functional
[1] = organism: Mus musculus; assay: Inhibition of the increase of the rate of CK release induced by […] of Bothrops jararacussu venom on isolated EDL mouse muscles after 60 min of exposure at 0.1-30 uM
[2] = organism: Mus musculus; assay: Inhibition of the increase of the rate of CK release induced by […] of Bothrops jararacussu venom on isolated EDL mouse muscles after 60 min of exposure at 10-30 uM
[3] = organism: Mus musculus; assay: Inhibition of the increase of the rate of CK release induced by […] of Bothrops jararacussu venom on isolated EDL mouse muscles after 60 min of exposure at 0.1-1.0 uM
[4] = organism: Mus musculus; assay: Inhibition of the increase of the rate of CK release induced by […] of Bothrops jararacussu venom on isolated EDL mouse muscles after 60 min of exposure at 0.1-10 uM

| SMILES | Inhibition [1] [%] | further results |
| --- | --- | --- |
| Oc1ccc2c(c1)OC[C@H]1c3cc4c(c(Cc5ccccc5)c3O[C@@H]21)OCO4 | 0 |  |
| Oc1ccc2c(c1)OC[C@H]1c3cc4c(cc3O[C@@H]21)OCO4 [MAACKIAIN] | 0 |  |
| CC(C)=CCc1c2c(cc3c1O[C@H]1c4ccc(O)cc4OC[C@@H]31)OCO2 | 0 |  |
| Oc1ccc2c(c1Cc1ccccc1)OC[C@H]1c3cc4c(c(Cc5ccccc5)c3O[C@@H]21)OCO4 | 0 |  |
| CC(C)=CCc1c(O)ccc2c1OC[C@H]1c3cc4c(cc3O[C@@H]21)OCO4 |  | Inhibition [2]: 0%; Inhibition [3]: >40% |
| Oc1ccc2c(c1Cc1ccccc1)OC[C@H]1c3cc4c(cc3O[C@@H]21)OCO4 |  | Inhibition [4]: >70% |
| CC(C)=CCc1c2c(cc3c1O[C@H]1c4ccc(O)c(CC=C(C)C)c4OC[C@@H]31)OCO2 | 0 |  |
